Measured values as given in patent publication US8709743B2, “Inhibitors of bacterial nitric oxide synthase, and related screening methods” (Massachusetts Institute of Technology, priority 2007, dated 2014).

How the values were obtained:
[1] = test system: SK—N—SH human neuroblastoma cells; assay: Detection of NO produced by cNOS in estradiol-stimulated SK—N—SH cells (fluorescence microscopy); format: cell-based
Procedure: (§1) FIG. 10 illustrates Cu(FL5) detection of NO produced by cNOS. (a) NO detection in SK—N—SH cells by Cu^II(FL5). Left to right: 25 min incubation of Cu(FL5) (1 μM) and 5, 10, 15, 25 min after co-treatment of Cu(FL5) (1 μM) and 17β-estradiol (100 nM). Images were taken with a Nikon Eclipse TS100 microscope after removing the DMEM media and washing the cells with PBS. Top: fluorescence images; bottom: phase contrast images. (b) Fluorescence intensity (F(t)/FCu(FL5)) from a was plotted against incubation time. (c) NO production with or without of L-NNA. Right: NO detection in cells after 10 min co-incubation of Cu(FL5) (1 μM) and 17β-estradiol (100 nM). Left: NO detection in cells pre-treated with L-NNA for 1 h before addition of Cu(FL5) and 17β-estradiol.
We investigated the ability of Cu(FL5) to detect NO produced in SK—N—SH human neuroblastoma cells under physiological conditions, since constitutive NO synthase (“cNOS”) in this cell line can be activated by estrogen to produce NO. […] The NO-dependent fluorescence response, monitored after simultaneous administration of 17β-estradiol (100 nM) and Cu(FL5) (1 μM) to the cells, was complete within 5 min with a 4.0±0.6-fold increase in fluorescence (FIGS. 10a and b). […]
Firstly, Cu(FL5) visualizes NO in the estradiol-stimulated neuroblastoma cells with brighter fluorescence than DAF-2 DA (o-diaminofluorescein diacetate). […]

[2] = FL5 binding of Cu(II): absorption titration with CuCl2 and fluorescence quenching; conditions: 1 μM FL5 solution, 37° C.
Procedure: Derivatized fluorescein molecules are excellent biosensors because they excite and emit in a region of the visible spectrum that is relatively free of interference. We prepared the fluorescein-based ligand FL5 (FIG. 7) by reacting 7′-chloro-4′-fluorescein-carboxaldehyde with 8-aminoquinaldine. We generated the Cu(II) fluorescein-based NO probe Cu(FL5) (FIG. 4) in situ reacting FL5 (prepared as described below) with CuCl2 in a 1:1 ratio in buffered aqueous solution (50 mM PIPES, pH 7.0, 100 mM KCl). […] A Job's plot was constructed to evaluate the nature of the FL5:Cu(II) complex by following the UV-vis absorption spectral change at 512 nm in pH 7.0 buffered solution. A break at 0.5 indicated the formation of a 1:1 complex.
The fluorescence of a 1 μM FL5 solution was diminished by 18±3% upon introduction of an equimolar quantity of CuCl2 at 37° C. Addition of excess NO to a buffered aqueous Cu(FL5) solution led to an immediate 11.2±1.5-fold increase in fluorescence (FIG. 8). […] The lower detection limit for NO is 5 nM.

[3] = Fluorescence response of the sensor to NO in buffered aqueous solution
[4] = test system: Raw 264.7 murine macrophage; assay: Detection of NO produced by iNOS in LPS and IFN-γ stimulated Raw 264.7 cells (fluorescence microscopy); format: cell-based; conditions: 12 h incubation period
[5] = Stability of nitrosated ligand at pH 7.0 (LC-MS); format: physicochemical; conditions: pH 7.0 buffered aqueous solution
From the text: High resolution MS of FL5-^14NO and FL-^15NO were also obtained, showing m/z=600.0729 for FL5-^14NO and 601.0736 for FL5-^15NO, corresponding to [FL5+NO—H+Cl]^− (calcd. m/z 600.0729 and 601.0700).

iNOS = target: T1, iNOS (Mus musculus, UniProt P29477); assay: Attenuation of Cu(FL5) fluorescence response by iNOS inhibitor in stimulated Raw 264.7 cells; format: cell-based, murine
T1 construct: endogenous in cells; host or cells: Raw 264.7 murine macrophage cells (ATCC), stimulated with LPS and IFN-gamma

cNOS = assay: Attenuation of Cu(FL5) fluorescence response by cNOS inhibitor in SK—N—SH cells; format: cell-based, human; conditions: SK—N—SH cells pre-treated with L-NNA for 1 h, 17β-estradiol
Procedure: as §1
We investigated the ability of Cu(FL5) to detect NO produced in SK—N—SH human neuroblastoma cells under physiological conditions, since constitutive NO synthase (“cNOS”) in this cell line can be activated by estrogen to produce NO. Estrogen administration leads to an increase in the cytosolic Ca(II) concentration that alters the structure of calmodulin, which in turn activates cNOS. The NO-dependent fluorescence response, monitored after simultaneous administration of 17β-estradiol (100 nM) and Cu(FL5) (1 μM) to the cells, was complete within 5 min with a 4.0±0.6-fold increase in fluorescence (FIGS. 10a and b). […]

T1 sequence (P29477 whole entry): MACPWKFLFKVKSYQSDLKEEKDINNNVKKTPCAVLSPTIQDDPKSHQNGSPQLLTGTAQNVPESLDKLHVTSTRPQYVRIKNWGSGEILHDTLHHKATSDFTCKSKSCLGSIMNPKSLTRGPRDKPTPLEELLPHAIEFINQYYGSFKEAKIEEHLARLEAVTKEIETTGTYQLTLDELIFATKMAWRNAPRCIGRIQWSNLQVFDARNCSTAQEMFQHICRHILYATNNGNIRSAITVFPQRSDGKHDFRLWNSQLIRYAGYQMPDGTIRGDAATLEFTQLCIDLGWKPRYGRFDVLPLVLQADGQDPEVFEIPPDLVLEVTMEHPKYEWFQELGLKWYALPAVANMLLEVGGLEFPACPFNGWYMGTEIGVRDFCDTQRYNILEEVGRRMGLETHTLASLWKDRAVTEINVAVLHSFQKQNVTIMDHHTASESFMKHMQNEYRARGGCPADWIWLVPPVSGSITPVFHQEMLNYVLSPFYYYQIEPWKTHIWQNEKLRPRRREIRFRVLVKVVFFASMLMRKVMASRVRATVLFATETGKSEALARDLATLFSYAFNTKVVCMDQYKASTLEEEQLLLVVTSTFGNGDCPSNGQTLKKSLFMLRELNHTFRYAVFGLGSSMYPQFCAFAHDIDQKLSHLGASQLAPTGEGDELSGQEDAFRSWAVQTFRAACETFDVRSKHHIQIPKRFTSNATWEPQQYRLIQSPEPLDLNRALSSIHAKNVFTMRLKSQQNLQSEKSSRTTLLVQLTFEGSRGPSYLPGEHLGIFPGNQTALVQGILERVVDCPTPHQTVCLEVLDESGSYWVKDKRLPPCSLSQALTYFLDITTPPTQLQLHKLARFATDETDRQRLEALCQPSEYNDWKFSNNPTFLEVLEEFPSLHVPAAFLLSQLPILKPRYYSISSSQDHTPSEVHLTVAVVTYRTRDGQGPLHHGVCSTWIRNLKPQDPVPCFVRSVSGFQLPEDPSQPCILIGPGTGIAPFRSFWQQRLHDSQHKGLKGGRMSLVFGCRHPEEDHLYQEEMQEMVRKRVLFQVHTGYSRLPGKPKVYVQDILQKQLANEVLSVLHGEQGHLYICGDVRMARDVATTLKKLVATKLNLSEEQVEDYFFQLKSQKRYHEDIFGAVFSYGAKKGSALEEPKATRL

CC(=O)Oc1ccc2c(c1)Oc1cc(OC(C)=O)ccc1C21OC(=O)c2cc(N)c(N)cc21 [DAF-2 DA, o-diaminofluorescein diacetate, reference compound]
fluorescence change of treated cells after activation of cNOS ([1]; 30 min after activation of cNOS): only a slight fluorescence increase

Cc1ccc2cccc(NCc3c(O)ccc4c(-c5ccccc5C(=O)O)c5cc(Cl)c(=O)cc-5oc34)c2n1 [FL5, 2-{2-chloro-6-hydroxy-5-[(2-methyl-quinolin-8-ylamino)-methyl]-3-oxo-3H-xanthen-9-yl}-benzoic acid]
fluorescence diminished upon introduction of an equimolar quantity of CuCl2 [2]: 18±3% | increase in fluorescence when treated with excess NO over 30 min ([3]; no Cu(II): copper-free FL5 or FL5 with Cu(I)): 1.5±0.2 fold | fluorescence change in stimulated SK—N—SH cells in the absence of Cu(II) ion ([1]; over a period of 25 min): no fluorescence increase | turn-on fluorescence in stimulated Raw 264.7 cells without Cu(II) ion [4]: turn-on fluorescence emission was not observed

Cc1ccc2cccc(N(Cc3c(O)ccc4c(-c5ccccc5C(=O)O)c5cc(Cl)c(=O)cc-5oc34)N=O)c2n1 [FL5-NO, 2-{2-chloro-6-hydroxy-5-[((2-methylquinolin-8-yl)(nitroso)amino)-methyl]-3-oxo-3H-xanthen-9-yl}-benzoic acid]
stability at pH 7.0 [5]: stable for several days

CNC(=N)NCCC[C@H](N)C(=O)O [L-NMA, N^G-methyl-L-arginine]
Cu(FL5) fluorescence response in the presence of iNOS inhibitor (iNOS): notably weaker fluorescence response

N=C(NCCC[C@H](N)C(=O)O)N[N+](=O)[O-] [L-NNA, N^G-nitro-L-arginine]
Cu(FL5) fluorescence response in the presence of cNOS inhibitor (cNOS): notably weaker fluorescence response

o-diaminofluorescein [DAF-2, reference compound]
fluorescence in the presence of NO and the absence of O2 ([3]; over a period of 1 h): unchanged
